Experimental data reported in the supplement of paper PMC4862054.

Legend:
Test in all cases: normalised viability (% of control), CellTiter-Blue; higher = more viable cells (about 100 = DMSO control)
Conditions in all cases: incubation time: 72 h
BT-474 = test system: BT-474
Summary of the method: (§1)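 Vehicle (100) and a positive kill control (0) anchored the normalisation of each plate, and Z'-factor was used for quality control. Breast cancer cell lines in 20 µl suspension were incubated 72 h over compound in 5 µl medium in 384-well plates, followed by CellTiter-Blue at 560/590 nm. The value is normalised viability at a single listed concentration of the series.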

CAL-85-1 [1] = test system: CAL-85-1
Summary of the method: as §1

HCC1143 = test system: HCC1143
Summary of the method: as §1

SK-BR-3 = test system: SK-BR-3
Summary of the method: as §1

CAL-51 [2] = test system: CAL-51
Summary of the method: as §1

MDA-MB-231 = test system: MDA-MB-231
Summary of the method: as §1

MDA-MB-468 = test system: MDA-MB-468
Summary of the method: as §1

BT-549 = test system: BT-549
Summary of the method: as §1

HCC1937 = test system: HCC1937
Summary of the method: as §1

HCC1599 = test system: HCC1599
Summary of the method: as §1

HDQ-P1 [3] = test system: HDQ-P1
Summary of the method: as §1

DU-4475 = test system: DU-4475
Method: (§2)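 DSRT, CellTiter-Blue viability, 72 h incubation. Signal is normalised to DMSO and benzethonium chloride controls. Value is the normalised response at dose 8.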

CAL-85-1 [4] = test system: CAL-85-1; remark: listed apart in the source
Method: as §2

CAL-148 = test system: CAL-148
Method: as §2

CAL-51 [5] = test system: CAL-51; remark: listed apart in the source
Method: as §2

HDQ-P1 [6] = test system: HDQ-P1; remark: listed apart in the source
Method: as §2

MDA-MB-453 = test system: MDA-MB-453
Method: as §2

CC[C@H](Nc1ncnc2[nH]cnc12)c1nc2cccc(F)c2c(=O)n1-c1ccccc1 [CAL-101]
Conditions | normalised viability [%]
BT-474, 10 nM | 108
BT-474, 1000 nM | 109
BT-474, 10000 nM | 90.9
BT-549, 10 nM | 100
BT-549, 1000 nM | 96.6
BT-549, 10000 nM | 71.8
CAL-51 [2], 3 nM | 93
CAL-51 [2], 30 nM | 92
CAL-51 [2], 100 nM | 98
CAL-51 [5], 3000 nM | 89.3
CAL-85-1 [1], 3 nM | 88.6
CAL-85-1 [1], 30 nM | 75.9
CAL-85-1 [1], 100 nM | 78
CAL-85-1 [4], 3000 nM | 76.8
CAL-148, 3000 nM | 83.3
DU-4475, 3000 nM | 104
HCC1143, 10 nM | 99.4
HCC1143, 1000 nM | 96.1
HCC1143, 10000 nM | 76.2
HCC1599, 10 nM | 84.8
HCC1599, 1000 nM | 77.9
HCC1599, 10000 nM | 49.1
HCC1937, 10 nM | 106
HCC1937, 1000 nM | 94.5
HCC1937, 10000 nM | 92.4
HDQ-P1 [3], 3 nM | 90
HDQ-P1 [3], 30 nM | 101
HDQ-P1 [3], 100 nM | 102
HDQ-P1 [6], 3000 nM | 80.7
MDA-MB-231, 10 nM | 89.9
MDA-MB-231, 1000 nM | 92.1
MDA-MB-231, 10000 nM | 80.5
MDA-MB-453, 3000 nM | 79.5
MDA-MB-468, 10 nM | 110
MDA-MB-468, 1000 nM | 96
MDA-MB-468, 10000 nM | 62.6
SK-BR-3, 10 nM | 101
SK-BR-3, 1000 nM | 94.7
SK-BR-3, 10000 nM | 59.1

C=CC(=O)N1CCC[C@@H](n2nc(-c3ccc(Oc4ccccc4)cc3)c3c(N)ncnc32)C1
Conditions | normalised viability [%]
BT-474, 1 nM | 124
BT-474, 100 nM | 45.9
BT-474, 1000 nM | 42.1
BT-549, 1 nM | 96.6
BT-549, 100 nM | 109
BT-549, 1000 nM | 118
CAL-51 [2], 0.3 nM | 95.9
CAL-51 [2], 3 nM | 91
CAL-51 [2], 10 nM | 94.3
CAL-51 [5], 300 nM | 85.5
CAL-85-1 [1], 0.3 nM | 87.8
CAL-85-1 [1], 3 nM | 84.6
CAL-85-1 [1], 10 nM | 96.9
CAL-85-1 [4], 300 nM | 57.1
CAL-148, 300 nM | 84.6
DU-4475, 300 nM | 96.1
HCC1143, 1 nM | 76
HCC1143, 100 nM | 79
HCC1143, 1000 nM | 81.8
HCC1599, 1 nM | 104
HCC1599, 100 nM | 83.3
HCC1599, 1000 nM | 82.6
HCC1937, 1 nM | 94.8
HCC1937, 100 nM | 101
HCC1937, 1000 nM | 89.7
HDQ-P1 [3], 0.3 nM | 130
HDQ-P1 [3], 3 nM | 106
HDQ-P1 [3], 10 nM | 105
HDQ-P1 [6], 300 nM | 87.5
MDA-MB-231, 1 nM | 102
MDA-MB-231, 100 nM | 101
MDA-MB-231, 1000 nM | 111
MDA-MB-453, 300 nM | 26.9
MDA-MB-468, 1 nM | 99.9
MDA-MB-468, 100 nM | 78.3
MDA-MB-468, 1000 nM | 69.3
SK-BR-3, 1 nM | 91.9
SK-BR-3, 100 nM | 24.9
SK-BR-3, 1000 nM | 21.7
